The source of these data is US8158560B2, “Insecticidal arylpyrroline compounds” (Bayer CropScience AG, priority 2009, dated 2012).

Type in all cases: in vivo
Assay [1] relates to Myzus persicae-resistant strain, mixed population. In words: Myzus persicae spray test (MYZUPE). The conditions noted are these: 4 ppm, 6 dat, rating scheme. Here is the method: Myzus persicae—Spray Test (MYZUPE)
Insect: Myzus persicae-resistant strain, mixed population
Plant: Eggplant seedling (Solanum melongena var. Senryo 2gou) 2 leaf age (4-5 weeks after sowing), transplanted into vinyl pots of 60 mm diameter
Solvent pre-mixture: Sorpol® SD: Sorpol® BDB:Dimethylformamide=3:3:14; 10 mg a.i. is solved with 0.05 ml solvent pre-mixture. Water for dilution contains RME and AS (1000 ppm each) or 0.1% of spreader. Solutions are diluted at the rate of 1:5 for limit concentration determination.
Procedure: 1 day before treatment aphids are inoculated onto the testing plants, about 50 aphids per leaf, 100 for 1 pot. A paper label is placed on each pot. Solutions are sprayed directly onto both insects and plants. After drying pots are placed in the greenhouse at 20° C.-25° C. and 50-60% relative humidity.
After the specified period of time the mortality in % is determined and the rate of death is calculated according to the following scheme/criteria: […]

Assay [2] has as its system Bemisia tabacii biotype B. In words: Bemisia tabacii spray test (BEMIAR). The conditions noted are these: 100 ppm, 14 dat, rating scheme b324. Here is the method: Bemisia tabacii—Spray-Test (BEMIAR)
Insect: Bemisia tabacii biotype B
Plant: Tomato seedlings, 5 leaf stage in vinyl pots of 40 mm diameter
(§1) Solvent pre-mixture: Sorpol® SD: Sorpol® BDB:Dimethylformamide=3:3:14
10 mg a.i. is solved with 0.05 ml solvent pre-mixture. Water for dilution contains RME and AS (1000 ppm each) or 0.1% of spreader. Solutions are diluted at the rate of 1:5 for limit concentration determination.
Procedure: Solutions are sprayed to the plants. After drying treated pots are placed in the greenhouse where breeding BEMIAR for an infection-time of 24 h. Then the plants is placed in the testing room at 25° C. and 50-60% r.h., 16L8D lighting conditions.
(§2) After the specified period of time mortality in % is determined according to the following scheme/criteria: […]

The test system of assay [3] is Plutella xylostella 3rd instar larvae. In words: Plutella xylostella spray test (PLUTXY). The conditions noted are these: PLUTMA; 0.8 ppm; 7 dat. Here is the method: Plutella xylostella—Spray Test (PLUTXY)
Insect: Plutella xylostella 3rd instar larvae from own culture
Material: A-PET cup, A-PET lids
Plant: Broccoli 5 leaf stage
as §1
10 mg a i. is solved with 0.05 ml solvent pre-mixture
(§3) Water for dilution contains RME and AS (1000 ppm each) or 0.1% of spreader. Solutions are diluted at the rate of 1:5 for limit concentration determination.
Procedure: Broccoli seedlings of 4-5 leaf stage planted in a vinyl pot (9 cm diameter) are sprayed with the solution. After drying half of the leaves of the plants are cut and put into a A-PET cup. Ten larvae of Plutella xylostella L3 are released in the cup and the dish is placed at 25° C. After 4 days another half leaf is cut and added to the dish. After the specified period of time mortality in % is determined according to the figures of mortality used for evaluation. • 1 larva dead: 20% Efficacy • 5 larvae dead: 100% Efficacy Adoxophyes honmai—Test (ADXPFA)

Assay [4] deals with Nephotettix cincticeps-MR, resistant strain, 3rd-4th instar nymphs. In words: Nephotettix cincticeps spray test (NEPHCI). The conditions noted are these: 7 dat. Here is the method: Nephotettix cincticeps-Spray Test (NEPHCl)
Insect: Nephotettix cincticeps-MR, resistant strain, 3rd-4th instar nymphs from own culture
Plant: Rice seedlings (Oryza sativa var. Tamanishiki)
Material: ST-method container (200 ml desiccant polystyrene bottle) with a hole in the bottom sealed with metal mesh. The lid has a pit inside to keep desiccant, and it is used to sow rice seeds. The bottle is used upside down as “cover”, the lid with seedling is called “base”. Plastic stand-board with magnet labels to line the ST Bases up (“Stand”)
Solvent pre-mixture: Sorpol® SD: Sorpol® BDB:Dimethylformamide=3:3:14 10 mg a i. is solved with 0.05 ml solvent pre-mixture. Water for dilution contains RME and AS (1000 ppm each) or 0.1% of spreader. Solutions are diluted at the rate of 1:5 for limit concentration determination.
Procedure: On a pit in the center of a base (originally the desiccant space) pieces of paper towel are placed. 20-30 germinated rice seeds are sown on the paper and moistened with water. The base is covered with a plastic cup and kept in an incubator at 30° C. for five days.
The base with rice seedlings is placed on the Stand. Each base is sprayed with the solution.
After drying twelve 3rd-4th instar nymphs of Nephotettix cincticeps-MR are put on the base and confined with the cover. The ST containers on the Stands are kept in the testing room at 25° C. and 50-60% r.h., 16L8D lighting conditions.
After the specified period of time mortality in % is determined by rating according to the following scheme/criteria: Counting living moving insects, calculate mortality in % by the formula: […]

Assay [5] concerns Aulacophora femoralis 2nd instar larvae. In words: Aulacophora femoralis spray test (AUACFE). The following applies: 0.8 ppm, 6 dat, rating scheme b297. Here is the method:
Aulacophora femoralis—Spray Test (AUACFE)
Insect: Aulacophora femoralis 2nd instar larvae from own culture;
Material: PET cups with 5 ml soil and A-PET lids
Plant: Cucumber (Cucumis sativus var. Hanshiro), cotyledon stage; 1 plant per pot;
Solvent pre-mixture: Sorpol® SD: Sorpol® BDB:Dimethylformamide=3:3:14;
10 mg a.i. solved with 0.05 ml solvent pre-mixture. Water for dilution contains RME and AS (1000 ppm each) or 0.1% of spreader. Solutions are diluted at the rate of 1:5 for limit concentration determination.
Procedure: Solutions are sprayed onto a plant. After drying, plants are cut and put on the soil in the testing cup. Five larvae L2 are released into each testing cup.
The testing cup is covered with the lid and stored at 25° C. and 50-60% r.h., 16L8D lighting conditions.
After the specified period of time, the mortality in % is determined according to the following scheme/criteria: […]

A further assay concerns Panonychus citri. In words: Panonychus citri spray test (METTCI). The conditions noted are these: 4 ppm, 7 dat, rating scheme b306. Here is the method:
Panonychus citri—Spray Test (METTCI)
Plant: Citrus plants, ca 8 cm height
as §1
(§4) 10 mg a i. is solved with 0.05 ml solvent pre-mixture.
as §3
Procedure: 1 day before treatment mites were inoculated onto potted citrus plants, about 50 adults and some nymphs for 1 pot. The test solution is sprayed directly onto both mites and plants. After drying pots are stored at 25° C.
After the specified period of time mortality in % is determined by rating according to the following scheme/criteria.

Assay [6] deals with Spodoptera litura L2 stage. The assay is described as follows: Spodoptera litura root soaking test (PRODLI). The conditions noted are these: 20 ppm, 4 dat. Here is the method:
Spodoptera litura—Root Soaking Test (PRODLI)
Insect: Spodoptera litura L2 stage;
Material: Culture media bottles for hydroponics: Plastic (A-PET) cups for test, square type;
Plant: Broccoli 5 leaf stage (ca. 12 cm high), soil around the roots was washed off just before the test;
Solvent pre-mixture “Sorpol SD” for root soaking test;
Sorpol SD: Sorpol BDB:Dimethylformamide=3:3:140
Procedure: Test solutions are prepared in the bottles at the appropriate concentration. The test plant root is dipped into the test solution in the bottle and kept in a test room. After 3 days, ⅓ part of the leaves of the plants is cut and put into the A-PET cup.
Into each test cup five larvae L2 are released, the cup is covered with a lid and stored at 25° C. and at a relative humidity of 50-60% and under 16L8D lighting conditions.
After the specified period of time the mortality in % is determined and the rate of death is calculated.

Assay [7] concerns Tetranychus urticae-S (sensible strain) mixed population. The assay is described as follows: Tetranychus urticae test (TETRUR). The following applies: 0.16 ppm, 2 dat, rating scheme b334. Here is the method: Tetranychus urticae—Test (TETRUR)
Insect: Tetranychus urticae-S (sensible strain) mixed population from own culture
Plant: Kidney bean seedlings (Phaseolus vulgaris var. Serena), 2 leaf stage (1 week after sowing)
as §1, §4, §3
Procedure: 1 day before treatment the apex parts of testing plants are pruned. Mites are inoculated onto the testing plants, about 20 adults per leaf, 40 adults and some nymphs for 1 pot. A paper label is placed on each pot. The solution is sprayed onto mites and plants. After drying pots are placed in the greenhouse, temperature 20° C.-25° C.
as §2

As to `Cc1cc(C2=NOC(c3cc(C(F)(F)F)cc(C(F)(F)F)c3)(C(F)(F)F)C2)ccc1C(=O)NC1CS(=O)(=O)C1` (stereo not shown) [Compound C-1, reference compound], the “Efficacy/day(s) of treatment” value is given as 60%/6 dat in assay [1], 60%/14 dat in assay [2], 80%/7 dat in assay [3] and 70%/7 dat in assay [4] (100 ppm).
`Cc1cc(C2=NOC(c3cc(C(F)(F)F)cc(C(F)(F)F)c3)(C(F)(F)F)C2)ccc1C(=O)NC1CSC1` (stereo not shown) [ExNo A21 of WO 2009/080250, reference compound]: the “Efficacy/day(s) of treatment” value in assay [1] was 60%/6 dat; in assay [2], 60%/14 dat; in assay [5], 50%/6 dat; in the assay on Panonychus citri, 0%/7 dat; in assay [4] (20 ppm), 0%/7 dat.
In the case of `Cc1cc(C2=NCC(c3cc(Cl)cc(Cl)c3)(C(F)(F)F)C2)ccc1C(=O)NC1CSC1` (stereo not shown) [ExNo A49 of WO 2010/020522], the “Efficacy/day(s) of treatment” value in assay [6] came out at 100%/4 dat; in assay [7], 90%/2 dat.
As for `Cc1cc(C2=NOC(c3cc(Cl)cc(Cl)c3)(C(F)(F)F)C2)ccc1C(=O)NC1CSC1` (stereo not shown) [ExNo A-4 of WO 2009/080250], the “Efficacy/day(s) of treatment” value was found to be 80%/4 dat in assay [6] and 60%/2 dat in assay [7].
